Results from US20230107216A1, “PANTETHEINE DERIVATIVES AND USES THEREOF” (Comet Therapeutics, Inc., priority 2018, published 2023).
Read-outs that look alike come from different tables or passages of the source.

Key:
[1] = test system: Dermal fibroblasts (HDF3CGF system); assay: BioMAP HDF3CGF system (IL-1β, TNFα, IFNγ, EGF, bFGF, PDGF-BB); type: cell-based, human; conditions: Homo sapiens, Fibroblast, 72 h; 1 uM; read-out: % increase in 72 Hour Proliferation
[2] = test system: HepG2 cells; assay: Glucose uptake (Glucose Uptake-Glo); type: cell-based; conditions: Homo sapiens, 50 uM, read-out: % increase in Glucose Uptake
[3] = test system: Peripheral blood mononuclear cells co-cultured with venular endothelial cells (HUVEC) (LPS system); assay: BioMAP LPS system; type: cell-based, human; conditions: 10 uM, procedure of Example 827
[4] = test system: Bronchial epithelial cells (BE3C system); assay: BioMAP BE3C system (IL-1β, TNFα, IFNγ); type: cell-based, human; conditions: Homo sapiens, Epithelial cell, 24 h; 10 uM; procedure of Example 831; read-out: % decrease in MMP-1
[5] = test system: Keratinocytes co-cultured with dermal fibroblast (KF3CT system); assay: BioMAP KF3CT system (IL-1β, TNFα, IFNγ, TGFβ); type: cell-based, human; conditions: 1 uM
Method: The BioMAP platform (BioMAP® Diversity PLUS® Panel from Eurofins) is an in vitro phenotypic profiling technology that screened the compounds of the present disclosure (hereafter indicated as test agents) in human primary cell-based systems modelling complex tissue and disease states. The BioMAP assays were performed using the Eurofin's BioMAP Technology Platform as (see references 1 to 13 in the example 824 section) to model different diseases on primary cell-based model systems. These systems consisted of either single primary cell types or co-culture cells. Adherent cell types were cultured or co-cultured in 96 or 384-well plates until confluence followed by the addition of compounds prepared in DMSO at a final concentration of ≤0.1%. In each cell-based system, primary cells from heathy donors (2-6 donors) were pooled and treated with compounds at 1 and 10 μM dose 1h prior to stimulation and remain in culture as indicated in Example 825, Example 826, Example 827, Example 828, Example 829, Example 830, Example 831, Example 832, Example 833, Example 834, Example 835, Example 836 and Example 837. For on the BioMAP® Diversity PLUS® Panel, please see the following references, which are incorporate herein.
Following the general procedure as described in Example 824, Keratinocytes were co-cultured with dermal fibroblast (KF3CT system) and treated with IL-1β, TNFα, IFNγ and TGFβ for 24h in the presence or absence of the compounds to model psoriasis, dermatitis and skin biology. Biomarkers read out were; MCP-1, ICAM-1, IP-10, IL-8, MIG, IL-1α, MMP-9, PAI-1, SRB, TIMP-2, uPA.

[6] = test system: Propionic Acidemia (PA) primary fibroblasts GM00371; assay: Mitochondrial respiration, XFe96 Extracellular Flux Analyzer (OCR/ECAR), PA fibroblasts GM00371; type: cell-based; conditions: Homo sapiens, Fibroblast, assay condition C (10 mM glucose, 10% FBS), 50 μM, read-out: Increase in Maximal Respiratory Capacity AUC
[7] = test system: Peripheral blood mononuclear cells co-cultured with B-cells (BT system); assay: cells; conditions: Homo sapiens, 72 h, read-out: % decrease in sIL-17
[8] = test system: Methylmalonic Acidemia (MMA) primary fibroblasts GM01673; assay: Mitochondrial respiration, XFe96 Extracellular Flux Analyzer (OCR/ECAR), MMA fibroblasts GM01673; type: cell-based; conditions: Homo sapiens, Fibroblast, assay condition D (1 mM glucose, 10% FBS), 10 μM, read-out: Increase in Maximal Respiratory Capacity AUC
Method: The effect of the compounds of the present disclosure on mitochondrial respiration was measured with a XFe96 Extracellular Flux Analyzer (Seahorse Bioscience, Agilent Technologies) and Oxygen consumption Rate (OCR) and Extracellular acidification rate (ECAR) determined.
Cell culture and treatments. Primary adherent fibroblasts were cultured in minimum essential medium (MEM) (Gibco, 25030081) supplemented with 2 mM L-Glutamine (Gibco, 25030081), 15% fetal bovine serum (FBS) (Gibco, 26400044) and 1% penicillin/streptomycin (Gibco, 5140122) at 37° C. and 5% CO2. Cells were collected for either passaging or experiment at ˜70-80% confluence. Cells were obtained by trypsinization and seeded at 20000 cells/well in cell culture microplates (Seahorse Bioscience, 101085-004) and allowed to adhere for 16 hours in culture media.
By profiling different primary cells and/or optimizing their culture media or environmental components one can select cell lines and/or conditions that are appropriate for the biological or disease model. In the present example, 24 hours prior to OCR and ECAR profiling, media was changed to Dulbecco's Modified Eagle Medium (DMEM, Agilent Seahorse 103575-100) with the appropriate supplements for the different primary cells (10 mM glucose, 2 mM L-glutamine, 1 mM pyruvate, 10% FBS; 1 mM glucose, 2 mM L-glutamine, 1 mM pyruvate, 10% FBS; 10 mM glucose, 10% FBS; 5 mM glucose 10% FBS; 1 mM glucose 10% FBS). Cells used in this example were: Propionic Acidemia (PA) (GM00371, GM03590 Coriell Institute for Medical Research, Tsi 6337, Tsi 4626, Tsi 3618 Trans-Hit Bio), Methylmalonic Acidemia (MMA) (GM01673, Coriell Institute for Medical Research, Tsi 5224 Trans-Hit Bio), Branched chain ketoacid dehydrogenase kinase (BCKDK) (GM00612, GM00649 Coriell Institute for Medical Research), Subnormal activation of pyruvate dehydrogenase complex (PDH) (GM01503 Coriell Institute for Medical Research), Very long-chain acyl-CoA dehydrogenase (VLCAD) (GM17475), Leigh Syndrome (LS) (GM03672, GM13411 Coriell Institute for Medical Research), Pyruvate Carboxylase Deficiency (PC) (GM00444 Coriell Institute for Medical Research), Glutaric Acidemia-I (GA) (GM10653), Friedreich's Ataxia (FXN) (GM04078 Coriell Institute for Medical Research, Huntington's disease (HD) (GM21756 Coriell Institute for Medical Research), Ornithine Transcarbamylase Deficiency (OTC) (GM12756 Coriell Institute for Medical Research), Kearns-Sayre Syndrome (KSS) (GM06225 Coriell Institute for Medical Research).
One hour before the assay, the cells were washed with freshly prepared unbuffered serum free-Seahorse XF Assay medium (Seahorse Bioscience, North America, USA, 103575-100) with the same supplements as for the previous 24 hour incubation.
After baseline measurements of OCR, cells were challenged with compounds of the present disclosure at different concentrations (10 to 50 μM) or vehicle (DMSO, 0.1%) and a post-compound baseline was recorded. OCR was measured after sequentially adding to each well 1 μg/ml oligomycin (inhibitor of ATP synthase Sigma-Aldrich, 753531), then maximal OCR was determined with carbonyl cyanide 4-(trifluoromethoxy) phenylhydrazone (FCCP, Sigma-Aldrich, C2920), (uncoupler of oxidative phosphorylation) and 0.5 μM of rotenone (Sigma-Aldrich, R8875) plus antimycin A (Sigma-Aldrich, A8674) (inhibitors of mitochondrial complex I and III) for determination of rotenone-antimycin insensitive respiration together with Hoechst for nuclear staining in situ when normalized to cell counts. After the analysis and nuclear staining, the XFp microplate was transferred to the Cytation 5, and the nuclear images were captured, the individual nuclei were identified and counted by BioTek Gen5 software. Data were expressed as pmol of O2 per minute and normalized by nuclear staining and baselined to pre-compound addition.
Assay conditions were as stated below.
Assay specifics on assay conditions are indicated below when readouts were normalized to cell counts. […]

[9] = test system: Coronary artery smooth muscle cells (CASM3C system); assay: BioMAP CASM3C system (IL-1β, TNFα, IFNγ); type: cell-based, human
[10] = test system: Bronchial epithelial cells co-cultured with dermal fibroblast (BF4T system); assay: BioMAP BF4T system (TNFα and IL-4); type: cell-based, human; conditions: Homo sapiens, 24 h; 1 uM; procedure of Example 830; read-out: % increase in VCAM-1
[11] = test system: HepG2 cells; assay: MitoBiogenesis In-Cell ELISA (COX-I, SDH-A); type: cell-based; conditions: Homo sapiens, 168 h, 10 uM, 7 days, read-out: % increase in Mitochondrial Biogenesis
Description: We determined the effect of compounds of the present disclosure on the levels of two mitochondrial proteins using MitoBiogenesis™ In-Cell ELISA Kit (Abcam ab110216) according to manufacturer's instructions. The two proteins are each subunits of a different oxidative phosphorylation enzyme complex, one protein being subunit I of Complex IV (COX-1), which is mitochondrial (mt)DNA-encoded, and the other being the 70 kDa subunit of Complex II (SDH-A), which is nuclear (n)DNA-encoded. Complex IV includes several proteins which are encoded in the mitochondrion, while the proteins of Complex II are entirely encoded in the nucleus. HepG2 cells (ATCC, HB-8065) were cultured (5% CO2 at 37° C.) and plated in Poly-D-Lysine 384-Well plate (Corning, 356663) at a density of 40,000 cells/mL in 50 μL. Culture and assay media consisted of DMEM (Gibco, 11995-065) supplemented with 1% Penicillin-Streptomycin and 10% FBS (Hyclone, SV30087.03). Cells were allowed to settle for 30 min at room temperature and further incubated overnight (37° C. and 5% CO2) for adherence. Next day, 50-5 μM of the negative control Chloramphenicol (Selleck, S1677), test compounds (50-10 μM) and vehicle DMSO (0.2%) were added at the recommended volumes to the 384-well plate for 7 days without media change using a Tecan compound dispenser. All the solutions and wash buffers were prepared and dispensed according to manufacturer's volumes for a 384-well plate format. Effects of compounds on mtDNA-encoded protein expression (COX-I) and nuclear DNA-encoded mitochondrial protein expression (SDH-A) were expressed as relative signal (nm) to vehicle of a n=2 per conditions.

[12] = test system: primary fibroblasts (healthy controls and PA, MMA, BCKDK, PDH, VLCAD, LS, PC, GA, VLCFA, KSS, FXN, HD); assay: Measurement of ROS (H2DCFDA) in primary fibroblasts; type: cell-based, human; conditions: Homo sapiens, Fibroblast, BCKD GM00649, procedure Example 812, Assay Condition C
Method in brief: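 Patient and healthy-control primary fibroblasts switched to supplemented DMEM 24 h before assay, then treated with compound (10 μM) plus H2DCFDA (22 μM) for 2 h (PA, MMA lines) or 24 h (other lines). Kinetic fluorescence at 492/527 nm over 60 min; only live cells analysed.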

[13] = test system: HepG2 cells; assay: Mitochondrial membrane potential (MITO-ID MP detection Kit); type: cell-based; conditions: Homo sapiens, 168 h, 7 days, read-out: % decrease in Mitochondrial Membrane Potential
Method in brief: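 Cells plated at 160000 cells/mL in DMEM with 10% FBS and 1% Pen-Strep, adhered overnight at 37° C., 5% CO2. Exposure to test compounds (50-10 μM) or 0.2% DMSO for 7 days without media change; membrane potential measured with MITO-ID MP detection kit per manufacturer.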

CC(C)(CO)[C@@H](O)C(=O)NCCC(=O)NCCSC(CC(=O)O)C(=O)OCC[N+](C)(C)C (stereo partly drawn) [Compound 57, 3-(2-{3-[(R)-2,4-dihydroxy-3,3-dimethylbutyrylamino]propionylamino}ethylthio)-3-(2-trimethylazaniumethoxycarbonyl)propionic acid]
activation at 1 µM [1]: ≥ 10%
activation at 50 µM [2]: ≥ 20%
% increase in sPGE2 [3]: ≥10%
inhibition at 10 µM ([3]; Homo sapiens, HUVEC, 24 h, read-out: % decrease in TissueFactor): ≥ 10%
activation at 10 µM ([3]; Homo sapiens, HUVEC, 24 h, read-out: % increase in sTNFα): ≥ 20%
inhibition at 10 µM [4]: ≥ 10%
% decrease in PAI-I [5]: ≥10%
% decrease in MCP-1 ([5]; procedure of 834): ≥10%
activation at 50 µM [6]: ≥ 10%
inhibition at 10 µM [7]: ≥ 20%
activation at 10 µM [8]: ≥ 10%
% decrease in Tissue Factor ([9]; 1 uM): ≥10%
% decrease in Proliferation ([9]; 1 uM, procedure of Example 832): ≥10%
% decrease in CXCL9 ([9]; 10 uM): ≥10%
% decrease in HLA-DR ([9]; 10 uM): ≥10%
inhibition at 10 µM ([9]; Homo sapiens, 24 h, 10 uM, read-out: % decrease in Thrombomodulin): ≥ 20%
activation at 1 µM [10]: ≥ 10%

COC(=O)C[C@H](N)C(=O)SCCNC(=O)CCNC(=O)[C@H](O)C(C)(C)CO [Compound 414]
activation at 10 µM [11]: 10%
inhibition at 10 µM ([12]; read-out: Decreased ROS by at least 10%): ≥ 10%
inhibition at 10 µM ([12]; read-out: Decreased ROS by at least 30%): ≥ 30%
inhibition at 10 µM [13]: > 20%

COC(=O)CCC(=O)SCCNC(=O)CCNC(=O)[C@H](O)C(C)(C)COP(=O)(O)O [Compound 62, Methyl (R)-4-((2-(3-(2-hydroxy-3,3-dimethyl-4-(phosphonooxy)butanamido)propanamido)ethyl)thio)-4-oxobutanoate]
activation at 10 µM [11]: > 5%
inhibition at 50 µM ([13]; 50 uM): > 50%

CSCCNC(=O)CCNC(=O)[C@H](O)C(C)(C)CO [Compound 1250, (R)-2,4-dihydroxy-3,3-dimethyl-N-(3-((2-(methylthio)ethyl)amino)-3-oxopropyl)butanamide]
activation at 10 µM [11]: > 5%
inhibition at 10 µM [13]: > 50%
